Experiments:
Format in all cases: functional, cell-based
[1] = Cytotoxicity against human HT1080 cells assessed as growth inhibition after 48 hrs by MTT assay; settings: HT-1080, 48 h
[2] = tested on: KB; assay: Cytotoxicity against human KB cells assessed as growth inhibition after 48 hrs by MTT assay
[3] = Cytotoxicity against human SGC7901 cells assessed as growth inhibition after 48 hrs by MTT assay; settings: SGC-7901, 48 h

| Structure (SMILES) | IC50 [1] | IC50 [2] | IC50 [3] |
| --- | --- | --- | --- |
| CC[C@H]1OC(=O)[C@H](C)[C@@H](O[C@H]2C[C@@](C)(OC)[C@@H](O)[C@H](C)O2)[C@H](C)[C@@H](O[C@@H]2O[C@H](C)C[C@H](N(C)CCN(C)[C@H]3C[C@@H](C)O[C@@H](O[C@@H]4[C@@H](C)[C@H](O[C@H]5C[C@@](C)(OC)[C@@H](O)[C@H](C)O5)[C@@H](C)C(=O)O[C@H](CC)[C@@](C)(O)[C@H](O)[C@@H](C)/C(=N\OCc5cc(OC)c(OC)c(OC)c5)[C@H](C)C[C@@]4(C)O)[C@@H]3O)[C@H]2O)[C@](C)(O)C[C@@H](C)/C(=N/OCc2cc(OC)c(OC)c(OC)c2)[C@H](C)[C@@H](O)[C@]1(C)O | 3.9 µM | 8.3 µM | 28.4 µM |
| C=CCO/N=C1/[C@H](C)C[C@@](C)(O)[C@H](O[C@@H]2O[C@H](C)C[C@H](N(C)CCN(C)[C@H]3C[C@@H](C)O[C@@H](O[C@@H]4[C@@H](C)[C@H](O[C@H]5C[C@@](C)(OC)[C@@H](O)[C@H](C)O5)[C@@H](C)C(=O)O[C@H](CC)[C@@](C)(O)[C@H](O)[C@@H](C)/C(=N\OCC=C)[C@H](C)C[C@@]4(C)O)[C@@H]3O)[C@H]2O)[C@@H](C)[C@H](O[C@H]2C[C@@](C)(OC)[C@@H](O)[C@H](C)O2)[C@@H](C)C(=O)O[C@H](CC)[C@@](C)(O)[C@H](O)[C@H]1C | 27.7 µM | 17.5 µM | > 100 µM |
| CC[C@H]1OC(=O)[C@H](C)[C@@H](O)[C@H](C)[C@@H](O[C@@H]2O[C@H](C)C[C@H](N(C)CCN(C)[C@H]3C[C@@H](C)O[C@@H](O[C@@H]4[C@@H](C)[C@H](O)[C@@H](C)C(=O)O[C@H](CC)[C@@](C)(O)[C@H](O)[C@@H](C)C(=O)[C@H](C)C[C@@]4(C)OC)[C@@H]3O)[C@H]2O)[C@](C)(OC)C[C@@H](C)C(=O)[C@H](C)[C@@H](O)[C@]1(C)O | > 100 µM | > 100 µM | > 100 µM |
| CC[C@H]1OC(=O)[C@H](C)[C@@H](O[C@H]2C[C@@](C)(OC)[C@@H](O)[C@H](C)O2)[C@H](C)[C@@H](O[C@@H]2O[C@H](C)C[C@H](N(C)CCN(C)[C@H]3C[C@@H](C)O[C@@H](O[C@@H]4[C@@H](C)[C@H](O[C@H]5C[C@@](C)(OC)[C@@H](O)[C@H](C)O5)[C@@H](C)C(=O)O[C@H](CC)[C@@](C)(O)[C@H](O)[C@@H](C)/C(=N\OCOCCOC)[C@H](C)C[C@@]4(C)O)[C@@H]3O)[C@H]2O)[C@](C)(OC)C[C@@H](C)/C(=N/O)[C@H](C)[C@@H](O)[C@]1(C)O | 6.3 µM | 14.7 µM | 22.1 µM |
| CC[C@H]1OC(=O)[C@H](C)[C@@H](O[C@H]2C[C@@](C)(OC)[C@@H](O)[C@H](C)O2)[C@H](C)[C@@H](O[C@@H]2O[C@H](C)C[C@H](N(C)CCN(C)[C@H]3C[C@@H](C)O[C@@H](O[C@@H]4[C@@H](C)[C@H](O[C@H]5C[C@@](C)(OC)[C@@H](O)[C@H](C)O5)[C@@H](C)C(=O)O[C@H](CC)[C@@](C)(O)[C@H](O)[C@@H](C)/C(=N\OCOCCOC)[C@H](C)C[C@@]4(C)O)[C@@H]3O)[C@H]2O)[C@](C)(O)C[C@@H](C)/C(=N/O)[C@H](C)[C@@H](O)[C@]1(C)O | 16.2 µM | 18.6 µM | 7.2 µM |
| CC[C@H]1OC(=O)[C@H](C)[C@@H](O[C@H]2C[C@@](C)(OC)[C@@H](O)[C@H](C)O2)[C@H](C)[C@@H](O[C@@H]2O[C@H](C)C[C@H](N(C)C(=O)CN(C)[C@H]3C[C@@H](C)O[C@@H](O[C@@H]4[C@@H](C)[C@H](O[C@H]5C[C@@](C)(OC)[C@@H](O)[C@H](C)O5)[C@@H](C)C(=O)O[C@H](CC)[C@@](C)(O)[C@H](O)[C@@H](C)C(=O)[C@H](C)C[C@@]4(C)O)[C@@H]3O)[C@H]2O)[C@](C)(OC)C[C@@H](C)C(=O)[C@H](C)[C@@H](O)[C@]1(C)O | > 100 µM | 27.6 µM | 65.9 µM |
| CC[C@H]1OC(=O)[C@H](C)[C@@H](O[C@H]2C[C@@](C)(OC)[C@@H](O)[C@H](C)O2)[C@H](C)[C@@H](O[C@@H]2O[C@H](C)C[C@H](N(C)CCN(C)[C@H]3C[C@@H](C)O[C@@H](O[C@@H]4[C@@H](C)[C@H](O[C@H]5C[C@@](C)(OC)[C@@H](O)[C@H](C)O5)[C@@H](C)C(=O)O[C@H](CC)[C@@](C)(O)[C@H](O)[C@@H](C)/C(=N\OCc5ccccc5)[C@H](C)C[C@@]4(C)O)[C@@H]3O)[C@H]2O)[C@](C)(O)C[C@@H](C)/C(=N/OCc2ccccc2)[C@H](C)[C@@H](O)[C@]1(C)O | > 100 µM | > 100 µM | > 100 µM |
| CC[C@H]1OC(=O)[C@H](C)[C@@H](O[C@H]2C[C@@](C)(OC)[C@@H](O)[C@H](C)O2)[C@H](C)[C@@H](O[C@@H]2O[C@H](C)C[C@H](N(C)CC(=O)N(C)[C@H]3C[C@@H](C)O[C@@H](O[C@@H]4[C@@H](C)[C@H](O[C@H]5C[C@@](C)(OC)[C@@H](O)[C@H](C)O5)[C@@H](C)C(=O)O[C@H](CC)[C@@](C)(O)[C@H](O)[C@@H](C)C(=O)[C@H](C)C[C@@]4(C)O)[C@@H]3O)[C@H]2O)[C@](C)(OC)C[C@@H](C)C(=O)[C@H](C)[C@@H](O)[C@]1(C)O | > 100 µM | > 100 µM | > 100 µM |
| CC[C@H]1OC(=O)[C@H](C)[C@@H](O[C@H]2C[C@@](C)(OC)[C@@H](O)[C@H](C)O2)[C@H](C)[C@@H](O[C@@H]2O[C@H](C)C[C@H](N(C)CC(=O)N(C)[C@H]3C[C@@H](C)O[C@@H](O[C@@H]4[C@@H](C)[C@H](O)[C@@H](C)C(=O)O[C@H](CC)[C@@](C)(O)[C@H](O)[C@@H](C)/C(=N\OCOCCOC)[C@H](C)C[C@@]4(C)O)[C@@H]3O)[C@H]2O)[C@](C)(OC)C[C@@H](C)C(=O)[C@H](C)[C@@H](O)[C@]1(C)O | > 100 µM | > 100 µM | > 100 µM |
| CC[C@H]1OC(=O)[C@H](C)[C@@H](O[C@H]2C[C@@](C)(OC)[C@@H](O)[C@H](C)O2)[C@H](C)[C@@H](O[C@@H]2O[C@H](C)C[C@H](N(C)CCN(C)[C@H]3C[C@@H](C)O[C@@H](O[C@@H]4[C@@H](C)[C@H](O[C@H]5C[C@@](C)(OC)[C@@H](O)[C@H](C)O5)[C@@H](C)C(=O)O[C@H](CC)[C@@](C)(O)[C@H](O)[C@@H](C)[C@@H](O)[C@H](C)C[C@@]4(C)O)[C@@H]3O)[C@H]2O)[C@](C)(O)C[C@@H](C)[C@H](O)[C@H](C)[C@@H](O)[C@]1(C)O | > 100 µM | 44.9 µM | 61.6 µM |
| CC[C@H]1OC(=O)[C@H](C)[C@@H](O)[C@H](C)[C@@H](O[C@@H]2O[C@H](C)C[C@H](N(C)CCN(C)[C@H]3C[C@@H](C)O[C@@H](O[C@@H]4[C@@H](C)[C@H](O)[C@@H](C)C(=O)O[C@H](CC)[C@@](C)(O)[C@H](O)[C@@H](C)/C(=N\OCOCCOC)[C@H](C)C[C@@]4(C)O)[C@@H]3O)[C@H]2O)[C@](C)(O)C[C@@H](C)/C(=N/OCOCCOC)[C@H](C)[C@@H](O)[C@]1(C)O | > 100 µM | > 100 µM | > 100 µM |

Reference: ChEMBL document CHEMBL3217717, “Synthesis and antiproliferative activity of novel erythromycin derivatives” (Medchemcomm, 2010)
